In US8106055B2, “Substituted amide compounds” (Gruenenthal GmbH, priority 2007, dated 2012):

These compounds were tested against T1, human bradykinin 1 receptor (B1R) (Homo sapiens, UniProt P46663) (assay: Functional investigation on the human bradykinin 1 receptor (B1R), Ca2+ FLIPR assay in CHO K1 hB1R cells). Conditions: B1R antagonism human; test substance 10 μM; Ca2+ FLIPR, CHO K1 hB1R cells.
T1 construct: expressed in transfected cells; host or cells: CHO K1 cells
T1 sequence (P46663 1-353): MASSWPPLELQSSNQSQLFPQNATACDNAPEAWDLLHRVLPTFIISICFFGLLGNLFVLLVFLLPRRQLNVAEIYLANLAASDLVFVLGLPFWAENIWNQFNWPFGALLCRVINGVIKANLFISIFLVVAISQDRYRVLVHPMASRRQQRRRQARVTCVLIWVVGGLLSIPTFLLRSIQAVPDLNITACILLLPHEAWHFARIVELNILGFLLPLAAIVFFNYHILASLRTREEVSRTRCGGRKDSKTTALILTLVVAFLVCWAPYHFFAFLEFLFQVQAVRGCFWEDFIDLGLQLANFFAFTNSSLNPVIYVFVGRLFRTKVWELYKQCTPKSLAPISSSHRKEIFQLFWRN
Type: cell-based
Summary of the method: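 Peak Ca2+-dependent fluorescence in B1R-transfected CHO K1 cells measures antagonism of an EC80 agonist challenge given 10-20 min after compound. Agonist is Lys-Des-Arg9-bradykinin for human, Des-Arg9-bradykinin for rat receptor.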
With `COc1cc(C)c(S(=O)(=O)N2CCC(OCC(=O)NCC3CCC(C(c4ccc(Cl)cc4)N(C)C)CC3)C2)c(C)c1C` (stereo not drawn) [Example 428] the “B1R Ant. h [10 μM] % Inhibition” value was 48%. `COc1cc(C)c(S(=O)(=O)N(CCOCC(=O)NCC2CCC(C(c3cccc(F)c3)N(C)C)CC2)Cc2ccccc2)c(C)c1C` (stereo not drawn) [Example 414] was tested, and the “B1R Ant. h [10 μM] % Inhibition” value was 28%. For `CN(C)C(c1ccc(Cl)cc1)C1CCC(CNC(=O)COC2CCN(S(=O)(=O)c3ccc(F)cc3)C2)CC1` (stereo not drawn) [Example 394], the “B1R Ant. h [10 μM] % Inhibition” value was 2%. `CN(C)C(c1ccc(F)cc1)C1CCC(CNC(=O)COCCN2CCN(S(=O)(=O)c3ccccc3)CC2)CC1` (stereo not drawn) [Example 433] was tested, and the “B1R Ant. h [10 μM] % Inhibition” value was −4%. `CN(C)C(c1ccc(Cl)cc1)C1CCC(CCNC(=O)COCCN(C)S(=O)(=O)c2c(Cl)cc(Cl)cc2Cl)CC1` (stereo not drawn) [Example 442] was tested, and the “B1R Ant. h [10 μM] % Inhibition” value was 84%. With `CN(C)C(c1ccc(Cl)cc1)C1CCC(CCNC(=O)COC2CCCCC2N(C)S(=O)(=O)c2ccc(Cl)c(Cl)c2)CC1` (stereo not drawn) [Example 410] the “B1R Ant. h [10 μM] % Inhibition” value was 1%. In the case of `CN(C)C(c1ccc(F)cc1)C1CCC(NC(=O)COC2CCCN(S(=O)(=O)c3ccccc3)C2)CC1` (stereo not drawn) [Example 423], the “B1R Ant. h [10 μM] % Inhibition” value was 4%. For `CN(C)C(c1ccc(F)cc1)C1CCC(CNC(=O)COCCN(C)S(=O)(=O)c2c(Cl)cc(Cl)cc2Cl)CC1` (stereo not drawn) [Example 404], the “B1R Ant. h [10 μM] % Inhibition” value was 104%. With `CN(C)C(c1ccc(F)cc1)C1CCC(NC(=O)COC2CCN(S(=O)(=O)c3ccc(F)cc3)C2)CC1` (stereo not drawn) [Example 381] the “B1R Ant. h [10 μM] % Inhibition” value was −19%. `COc1cc(C)c(S(=O)(=O)N2CCCC(OCC(=O)NCC3CCC(C(c4ccc(F)cc4)N(C)C)CC3)C2)c(C)c1C` (stereo not drawn) [Example 418] was tested, and the “B1R Ant. h [10 μM] % Inhibition” value was 53%. In the case of `CN(C)C(c1ccc(F)cc1)C1CCC(CNC(=O)COCCN(C)S(=O)(=O)c2ccc(F)cc2)CC1` (stereo not drawn) [Example 400], the “B1R Ant. h [10 μM] % Inhibition” value was 3%. In the case of `COc1cc(C)c(S(=O)(=O)N(C)CCOCC(=O)NC2CCC(C(c3ccc(F)cc3)N(C)C)CC2)c(C)c1` (stereo not drawn) [Example 422], the “B1R Ant. h [10 μM] % Inhibition” value was 104%. For `CN(C)C(CCc1ccccc1)C1CCC(CNC(=O)COCC2CCCN2S(=O)(=O)c2ccc(Cl)c(Cl)c2)CC1` (stereo not drawn) [Example 415], the “B1R Ant. h [10 μM] % Inhibition” value was 96%. For `Cc1ccc(S(=O)(=O)N2CCC(OCC(=O)NC3CCC(C(c4ccc(F)cc4)N(C)C)CC3)C2)cc1` (stereo not drawn) [Example 371], the “B1R Ant. h [10 μM] % Inhibition” value was 7%. For `COc1cc(C)c(S(=O)(=O)N2CCCC(OCC(=O)NCC3CCC(C(c4ccc(Cl)cc4)N(C)C)CC3)C2)c(C)c1C` (stereo not drawn) [Example 449], the “B1R Ant. h [10 μM] % Inhibition” value was 25%. `CN(C)C(c1ccc(F)cc1)C1CCC(NC(=O)COC2CCN(S(=O)(=O)c3ccccc3)CC2)CC1` (stereo not drawn) [Example 408] was tested, and the “B1R Ant. h [10 μM] % Inhibition” value was −16%. In the case of `CN(C)C(c1ccc(F)cc1)C1CCC(NC(=O)COCCN(C)S(=O)(=O)c2c(Cl)cc(Cl)cc2Cl)CC1` (stereo not drawn) [Example 382], the “B1R Ant. h [10 μM] % Inhibition” value was 103%. `CN(C)C(c1ccc(Cl)cc1)C1CCC(CCNC(=O)COC2CCN(S(=O)(=O)c3ccccc3)CC2)CC1` (stereo not drawn) [Example 443] was tested, and the “B1R Ant. h [10 μM] % Inhibition” value was 21%. With `COc1ccc(S(=O)(=O)N(C)CCOCC(=O)NC2CCC(C(c3cccc(F)c3)N(C)C)CC2)cc1OC` (stereo not drawn) [Example 401] the “B1R Ant. h [10 μM] % Inhibition” value was −19%. `CN(C)C(c1ccc(F)cc1)C1CCC(CNC(=O)COCCN(C)S(=O)(=O)c2ccc(OC(F)(F)F)cc2)CC1` (stereo not drawn) [Example 439] was tested, and the “B1R Ant. h [10 μM] % Inhibition” value was 44%. `CN(C)C(c1ccc(F)cc1)C1CCC(CCNC(=O)COCCN(C)S(=O)(=O)c2c(Cl)cc(Cl)cc2Cl)CC1` (stereo not drawn) [Example 386] was tested, and the “B1R Ant. h [10 μM] % Inhibition” value was 104%. In the case of `CN(C)C(c1ccc(F)cc1)C1CCC(NC(=O)COCCN(C)S(=O)(=O)c2c(Cl)cccc2Cl)CC1` (stereo not drawn) [Example 363], the “B1R Ant. h [10 μM] % Inhibition” value was 80%. With `COc1cc(C)c(S(=O)(=O)N(C)CCOCC(=O)NCCC2CCC(C(c3ccc(F)cc3)N(C)C)CC2)c(C)c1` (stereo not drawn) [Example 392] the “B1R Ant. h [10 μM] % Inhibition” value was 104%. For `CN(C)C(c1ccc(Cl)cc1)C1CCC(CCNC(=O)COC2CCN(S(=O)(=O)c3ccccc3)C2)CC1` (stereo not drawn) [Example 375], the “B1R Ant. h [10 μM] % Inhibition” value was 2%.
